Data reported in patent publication US20200368247A1, “CENICRIVIROC FOR THE TREATMENT OF FIBROSIS” (Tobira Therapeutics, Inc., priority 2014, published 2020).

What was measured:
[1] = Study 202 biomarkers of inflammation; format: in vivo, human
Description: As an exploratory analysis, levels of inflammation biomarkers MCP-1, sCD14, high sensitivity C-reactive protein [hs-CRP], interleukin-6 [IL-6], D-dimer, and fibrinogen) were measured. Baseline values and changes from baseline at Week 24 and Week 48 of MCP-1, sCD14, hs-CRP, IL-6, D-dimer, and fibrinogen are summarized in Table 25.
The sCD14 samples were originally analyzed in 2 separate batches: Batch 1 included samples leading up to the Week 24 primary analysis and Batch 2 included Week 32 and Week 48 (end of study) samples. A repeat analysis of archived samples all analyzed in one batch was conducted for consistency in analysis across time points. To control for the effects of covariates, a linear mixed-model repeated-measures analysis was conducted on the changes from baseline in sCD14 (analysis dated September 2013).

[2] = Study 202 post-hoc APRI and FIB-4 fibrosis index scores; format: in vivo, human
Description: APRI and FIB-4 scores were calculated. Change in score category from baseline (BL) to Weeks 24 and 48 was assessed in patients with non-missing data. Correlations between changes from BL in APRI and FIB-4 scores, and MCP-1 (CCR2 ligand) and sCD14 (inflammatory biomarker) levels were evaluated.

[3] = Study 202 fasting metabolic laboratory parameters; format: in vivo, human
Excerpt: All abnormalities in total cholesterol, LDL cholesterol, triglycerides, or glucose were Grade 1 or Grade 2.
Mean baseline values and changes from baseline in HbA1c, HOMA-IR, fasting LDL, fasting HDL, fasting total cholesterol, fasting total cholesterol/HDL ratio, and fasting triglycerides are shown in Table 36.

HIV-1 = assay: Study 202 Phase 2b, virologic response (HIV-1 RNA <50 copies/mL, FDA Snapshot), with FTC/TDF; settings: for subjects with virologic success (HIV-1 RNA <50 copies/mL): EFV
Excerpt: Subjects with a history of HIV-2, hepatitis B and/or C, cirrhosis of the liver or any known active or chronic active liver disease were excluded from the study.
The primary efficacy endpoint was virologic response at Week 24, defined as HIV-1 RNA <50 copies/mL using the FDA Snapshot Algorithm.

[4] = Study 202 ECG abnormalities; format: in vivo, human; settings: All CVC (N = 115); EFV (N = 28), through Week 48
[5] = All CVC (N = 115), EFV (N = 28), through Week 48

O=C1Nc2ccc(Cl)cc2[C@@](C#CC2CC2)(C(F)(F)F)O1 [EFV, efavirenz, reference compound]
sCD14 Baseline value, Mean ([1]; EFV 600 mg): 2e+06 pg/mL | sCD14 change from baseline at Week 12, Mean ([1]; EFV 600 mg): 90000 pg/mL | sCD14 change from baseline at Week 12, Median ([1]; EFV 600 mg): 180000 pg/mL | sCD14 change from baseline at Week 24, Mean ([1]; EFV 600 mg): 230000 pg/mL | sCD14 change from baseline at Week 24, Median ([1]; EFV 600 mg): 130000 pg/mL | sCD14 change from baseline at Week 32, Mean ([1]; EFV 600 mg): 480000 pg/mL | sCD14 change from baseline at Week 32, Median ([1]; EFV 600 mg): 170000 pg/mL | sCD14 change from baseline at Week 48, Mean ([1]; EFV 600 mg): 640000 pg/mL | sCD14 change from baseline at Week 48, Median ([1]; EFV 600 mg): 460000 pg/mL | plasma MCP-1 over time ([1]; Study 202, up to Week 48): remained at baseline values | APRI 0.5-1.5, patients ([2]; Baseline): 4% | APRI <0.5, patients ([2]; Baseline): 96% | FIB-4 <1.45, patients ([2]; Baseline): 100% | subjects with decrease in FIB-4 score by one category ([2]; EFV arm, Weeks 24 and 48): no subject | APRI <0.5, patients ([2]; Week 24): 100% | APRI decreased 1 category from baseline, patients ([2]; Week 24): 5% | FIB-4 <1.45, patients ([2]; Week 24): 100% | APRI <0.5, patients ([2]; Week 48): 100% | APRI decreased 1 category from baseline, patients ([2]; Week 48): 6% | FIB-4 1.45-3.25, patients ([2]; Week 48): 6% | FIB-4 <1.45, patients ([2]; Week 48): 94% | Any fasting laboratory abnormality, worst Grade 1 [3, 5]: 6 (21%) n (%) | Any fasting laboratory abnormality, worst Grade 2 [3, 5]: 3 (11%) n (%) | Any fasting laboratory abnormality, worst Grade 3 [3, 5]: 0 n (%) | Any fasting laboratory abnormality, worst Grade 4 [3, 5]: 0 n (%) | Any graded (Grade 1-4) fasting laboratory abnormality [3, 5]: 9 (32%) n (%) | Fasting LDL cholesterol abnormality, Grade 1 [3, 5]: 3 (11%) n (%) | Fasting LDL cholesterol abnormality, Grade 2 [3, 5]: 3 (11%) n (%) | Fasting LDL cholesterol abnormality, Grade 3 [3, 5]: 0 n (%) | Fasting LDL cholesterol abnormality, Grade 4 [3, 5]: 0 n (%) | Fasting LDL cholesterol abnormality, any grade [3, 5]: 6 (21%) n (%) | Fasting glucose (serum, high) abnormality, Grade 1 [3, 5]: 2 (7%) n (%) | Fasting glucose (serum, high) abnormality, Grade 2 [3, 5]: 0 n (%) | Fasting glucose (serum, high) abnormality, Grade 3 [3, 5]: 0 n (%) | Fasting glucose (serum, high) abnormality, Grade 4 [3, 5]: 0 n (%) | Fasting glucose (serum, high) abnormality, any grade [3, 5]: 2 (7%) n (%) | Fasting total cholesterol abnormality, Grade 1 [3, 5]: 6 (21%) n (%) | Fasting total cholesterol abnormality, Grade 2 [3, 5]: 3 (11%) n (%) | Fasting total cholesterol abnormality, Grade 3 [3, 5]: 0 n (%) | Fasting total cholesterol abnormality, Grade 4 [3, 5]: 0 n (%) | Fasting total cholesterol abnormality, any grade [3, 5]: 9 (32%) n (%) | Fasting triglycerides abnormality, Grade 1 [3, 5]: 0 n (%) | Fasting triglycerides abnormality, Grade 2 [3, 5]: 0 n (%) | Fasting triglycerides abnormality, Grade 3 [3, 5]: 0 n (%) | Fasting triglycerides abnormality, Grade 4 [3, 5]: 0 n (%) | Fasting triglycerides abnormality, any grade [3, 5]: 0 n (%) | Fasting HDL, mean change from baseline ([3]; All CVC, EFV, Week 4): 5.90 mg/dL | Fasting total cholesterol, mean change from baseline ([3]; All CVC, EFV, Week 4): 19 mg/dL | Fasting total cholesterol/HDL ratio, mean change from baseline ([3]; All CVC, EFV, Week 4): −0.07 | Fasting triglycerides, mean change from baseline ([3]; All CVC, EFV, Week 4): 23 mg/dL | HOMA-IR, mean change from baseline ([3]; All CVC, EFV, Week 4): 0.30 | HbA1c, mean change from baseline ([3]; All CVC, EFV, Week 4): −0.01 % Hb | Fasting total cholesterol, mean change from baseline ([3]; All CVC, EFV, Week 12): 18 mg/dL | Fasting total cholesterol/HDL ratio, mean change from baseline ([3]; All CVC, EFV, Week 12): −0.41 | Fasting triglycerides, mean change from baseline ([3]; All CVC, EFV, Week 12): 3 mg/dL | HOMA-IR, mean change from baseline ([3]; All CVC, EFV, Week 12): 0.06 | HbA1c, mean change from baseline ([3]; All CVC, EFV, Week 12): −0.07 % Hb | Fasting total cholesterol, mean change from baseline ([3]; All CVC, EFV, Week 24): 24 mg/dL | Fasting total cholesterol/HDL ratio, mean change from baseline ([3]; All CVC, EFV, Week 24): −0.47 | Fasting triglycerides, mean change from baseline ([3]; All CVC, EFV, Week 24): 10 mg/dL | HbA1c, mean change from baseline ([3]; All CVC, EFV, Week 24): −0.01 % Hb | Fasting total cholesterol, mean change from baseline ([3]; All CVC, EFV, Week 48): 26 mg/dL | HOMA-IR, mean change from baseline ([3]; All CVC, EFV, Week 48): −0.12 | HbA1c, mean change from baseline ([3]; All CVC, EFV, Week 48): 0.08 % Hb | change in LDL cholesterol and HDL cholesterol ([3]; EFV, through Week 48): increases | subjects who prematurely discontinued the study (HIV-1; EFV arm): 39% | subjects with virologic success (HIV-1 RNA <50 copies/mL) (HIV-1; Week 24): 71% | subjects with virologic success (HIV-1 RNA <50 copies/mL) (HIV-1; Week 48): 50% | HR Abnormally high (120 bpm ≤ abnormally high) [4]: 0 n (%) | HR Abnormally low (≤ 50 bpm) [4]: 0 n (%) | PR Abnormally high (210 ms ≤ abnormally high) [4]: 1 (4%) n (%) | QRS Abnormally high (120 ms ≤ abnormally high) [4]: 0 n (%) | QRS Abnormally low (≤ 50 ms) [4]: 0 n (%) | QTcB interval Borderline (450 ms ≤ borderline ≤ 480 ms) [4]: 3 (11%) n (%) | QTcB interval Increase by >30-60 ms [4]: 4 (14%) n (%) | QTcB interval Increase by >60 ms [4]: 0 n (%) | QTcB interval Pathologically prolonged (> 500 ms) [4]: 0 n (%) | QTcB interval Prolonged (480 ms < prolonged ≤ 500 ms) [4]: 0 n (%) | QTcF interval Borderline (450 ms ≤ borderline ≤ 480 ms) [4]: 0 n (%) | QTcF interval Increase by >30-60 ms [4]: 4 (14%) n (%) | QTcF interval Increase by >60 ms [4]: 0 n (%) | QTcF interval Pathologically prolonged (> 500 ms) [4]: 0 n (%) | QTcF interval Prolonged (480 ms < prolonged ≤ 500 ms) [4]: 0 n (%)
